Assays:
[1] = test system: rat embryonic mesencephalic cells; assay: [3H]dopamine uptake, medium change (glutamate receptor dependent) model of cell death; settings: 50 μM
Method: Preparations are then added to 10 ml Ecoscint (National Diagnostics) and counted in a scintillation spectrometer.
(§1) In these experiments, cells were plated and allowed to stabilize for several days.

[2] = test system: cultured rat mesencephalic cells; assay: TH immunochemistry after 100 μM NMDA exposure; settings: 50 μM; single sample; listed as Deprenyl
Method: Rat mesencephalic cell cultures were exposed to 100 μM NMDA and incubated as described above in connection with FIG. 16.

MAO-A [3] = target: T1, MAO-A (Rattus norvegicus, UniProt P21396); assay: Inhibition of MAO-A in rat cortex mitochondrial-rich fractions; settings: read-out: Percent Inhibition MAO-A
T1 sequence (P21396 1-526): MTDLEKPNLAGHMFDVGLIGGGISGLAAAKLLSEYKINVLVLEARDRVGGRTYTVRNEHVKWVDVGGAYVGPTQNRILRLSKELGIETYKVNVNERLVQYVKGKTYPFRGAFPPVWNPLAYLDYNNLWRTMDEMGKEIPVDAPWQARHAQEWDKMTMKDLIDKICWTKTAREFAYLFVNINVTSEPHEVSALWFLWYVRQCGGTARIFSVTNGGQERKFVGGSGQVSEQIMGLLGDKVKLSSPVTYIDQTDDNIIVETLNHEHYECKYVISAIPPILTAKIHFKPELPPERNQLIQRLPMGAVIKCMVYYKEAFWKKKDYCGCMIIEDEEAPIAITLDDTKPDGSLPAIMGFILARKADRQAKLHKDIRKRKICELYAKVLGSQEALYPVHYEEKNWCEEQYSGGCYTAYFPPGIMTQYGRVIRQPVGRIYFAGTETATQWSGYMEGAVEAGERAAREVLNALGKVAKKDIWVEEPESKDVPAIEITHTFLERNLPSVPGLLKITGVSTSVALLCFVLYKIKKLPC

[4] = test system: rat embryonic mesencephalic cells; assay: TH positive cell survival, medium change (glutamate receptor dependent) model of cell death
Method: as §1

MAO-A [5] = target: T2, MAO-A (Cavia porcellus, UniProt H0UVA2); assay: MAO-A inhibition in guinea pig hippocampal homogenates in vitro; assay type: biochemical; design: specific substrates of MAO-A (^14C-serotonin) in guinea pig hippocampal homogenates; from tissue; host or cells: guinea pig hippocampal homogenates
T2 sequence (H0UVA2 1-461): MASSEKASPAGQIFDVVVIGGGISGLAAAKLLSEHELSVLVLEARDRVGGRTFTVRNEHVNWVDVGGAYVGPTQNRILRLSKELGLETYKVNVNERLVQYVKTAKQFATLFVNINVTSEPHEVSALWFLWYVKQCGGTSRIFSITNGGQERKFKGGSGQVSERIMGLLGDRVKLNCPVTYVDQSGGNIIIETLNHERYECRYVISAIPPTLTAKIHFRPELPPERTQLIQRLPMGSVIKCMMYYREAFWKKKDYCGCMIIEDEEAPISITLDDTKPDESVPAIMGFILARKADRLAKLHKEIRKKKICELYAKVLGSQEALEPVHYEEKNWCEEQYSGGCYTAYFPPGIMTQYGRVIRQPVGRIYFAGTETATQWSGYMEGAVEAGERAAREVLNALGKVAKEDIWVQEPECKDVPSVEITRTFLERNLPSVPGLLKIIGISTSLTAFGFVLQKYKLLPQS
Excerpt: Human platelet MAO is comprised exclusively of the type-B isoform of the enzyme. […] The present study also examined the two enantiomers of DMS for inhibitory activity with respect to the MAO-A and MAO-B in guinea pig hippocampal tissue. Guinea pig brain tissue is an excellent animal model for studying brain dopamine metabolism, the enzyme kinetics of the multiple forms of MAO and the inhibitory properties of novel agents that interact with these enzymes. The multiple forms of MAO in this animal species show similar kinetic properties to those found in human brain tissue. Finally, the test agents were administered to guinea pigs and the extent to which they might act as inhibitors of brain MAO in vivo was assessed.
In vitro: The test system utilized the in vitro conversion of specific substrates of MAO-A (^14C-serotonin) in guinea pig hippocampal homogenates or MAO-B (^14C-phenylethylamine) by human platelets and guinea pig hippocampal homogenates. […] A percent inhibition was calculated from these values.

MAO-A [6] = target: T2, MAO-A; assay: In vivo MAO-A inhibition in guinea pig cortex (hippocampus) after 5 s.c. treatments; settings: sc, read-out: inhibition of MAO-A activity
Method: Hippocampal homogenates containing enzyme were prepared, and assays in vitro for MAO-A and MAO-B activity.

With `C#CCN(C)[C@H](C)Cc1ccccc1` [Selegiline, (R)-N-α-dimethyl-N-2-propynylbenzeethanamine, reference compound] the “neuron protection by measurement of dopamine uptake (FIG. 15)” value [1] was “neuron protection”, the “TH positive cells, cells/cm^2” value [2] was 230 cells/cm^2 and the inhibition at 0.03 µM (MAO-A [3]) was 0%. The “TH positive cells, cells/cm^2” value ([4]; 50 μM, Mean, listed as Deprenyl) was 344.2 cells/cm^2, the “survival of dopaminergic neurons (TH staining and tritiated dopamine uptake, FIGS. 11 and 12)” value ([4]; 0.5, 5.0 or 50 μM, 4 days of daily medium changes) was “promotes the survival of dopaminergic neurons” and the “MAO-A % Reduction 0 ± SEM” value (MAO-A [5]; Concentration 300 nM) was 11.95 ± 2.4%. For the same molecule, the “MAO-A % Reduction 0 ± SEM” value (MAO-A [5]; Concentration 1 μM) was 22.1 ± 1.2%, the “MAO-A % Reduction 0 ± SEM” value (MAO-A [5]; Concentration 3 μM) was 53.5 ± 2.7% and the “reduction in potency compared to selegiline, MAO-A” value (MAO-A [5]; figure in parentheses, times less potent) was 1. The inhibition at 1 mg/kg (MAO-A [6]) was 36.1%.

— patent publication US20060167110A1 (priority 1995, published 2006)
